Each structure is given as a SMILES string. Counter-ions that a name gives are not always drawn.

The subject of the first experiment is PMS1. The experiment is described as follows: Mini-Gene Reporter Assay—PMS1 (firefly luciferase mini-gene reporter transiently transfected into HEK293 cells). To be noted: Homo sapiens; at 5 uM; mini-gene firefly luciferase reporter in HEK293 cells; read-out: PMS1 % Effect at 5 uM. The format is cell-based. An outline of the steps: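 HEK293 cells transiently transfected with a mini-gene construct (skipped exon with flanking introns/exons fused to firefly luciferase, pcDNA3.1) are incubated with compounds in duplicate. Exon inclusion raises luminescence; EC50 fitted by Levenberg-Marquardt; effect also scored at 5 μM.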
For the compound `CCOc1cc2nn(C)cc2cc1C(=O)Nc1cnc(N2CCNCC3(CC3)C2)cn1` [Compound 305], the activation at 5 µM was greater than 75%. As for `CCOc1cc2nn(C)cc2cc1C(=O)Nc1cnc(NCC2CCC3(CCNCC3)CC2)cn1` [Compound 329], the activation at 5 µM is less than 50%. In the case of `CCOc1cc2nn(C)cc2cc1C(=O)Nc1cnc(NCc2ccc(CN)cc2F)nc1` [Compound 445], the activation at 5 µM is less than 50%.

Regarding `CCOc1cc2nn(C)cc2cc1C(=O)Nc1cnc(N2CCC(N)CC2)cn1` [Compound 371], the activation at 5 µM is greater than 75%. Regarding `CCOc1cn2nc(C)cc2cc1C(=O)Nc1cnc(N2CCC(COC3CCNC3)CC2)cn1` (stereo not shown) [Compound 523], the activation at 5 µM is less than 50%. With `CCOc1cc2nn(C)cc2cc1C(=O)Nc1cnc(NC[C@H]2CCCN2)nc1` [Compound 475], the activation at 5 µM was less than 50%. `CCOc1cc2nn(C)cc2cc1C(=O)Nc1cnc(NCC(N)c2ccc(F)cc2)nc1` (stereo not shown) [Compound 419]: the activation at 5 µM is less than 50%. For the compound `CCOc1cc2nn(C)cc2cc1C(=O)Nc1ccc(N2CCN(C(=O)OC(C)OC(=O)C(C)C)[C@@H](C)C2)nn1` (stereo partly drawn) [Compound 747, 1-(isobutyryloxy)ethyl (2S)-4-(6-(6-ethoxy-2-methyl-2H-indazole-5-carboxamido)pyridazin-3-yl)-2-methylpiperazine-1-carboxylate], the activation at 5 µM was greater than 75%.

In the case of `CCOc1cc2nn(C)cc2cc1C(=O)Nc1cnc(NC[C@]2(F)C[C@@H](N)C2)nc1` [Compound 392], the activation at 5 µM was less than 50%. As for `CCOc1cc2nn(C)cc2cc1C(=O)Nc1cnc(NCC2(CN)CCC2)nc1` [Compound 421], the activation at 5 µM is less than 50%.

Turning to `CCOc1cc2nc(C)cn2cc1C(=O)Nc1cnc(N2CCOC3(CCNC3)C2)cn1` (stereo not shown) [Compound 676], the activation at 5 µM was in the range of 50 to 75%.

For `CCOc1cc2nn(C)cc2cc1C(=O)Nc1cnc(N[C@@H]2C[C@H]3CC[C@@H](C2)N3)cn1` [Compound 366], the activation at 5 µM was greater than 75%. As for `CCOc1cn2nc(C)cc2cc1C(=O)Nc1cnc(N2CCCNCC2)nc1` [Compound 600], the activation at 5 µM was less than 50%. For `CCOc1cc2nn(C)cc2cc1C(=O)Nc1cnc(NC(C)C2CCNCC2)cn1` (stereo not shown) [Compound 356], the activation at 5 µM was less than 50%. The same measure, in the same setting: the result for `CCOc1cc2nn(C)cc2cc1C(=O)Nc1cnc(NCC2CCCCN2)nc1` (stereo not shown) [Compound 469] reads less than 50%; that for `COc1cc2nc(C)cn2cc1C(=O)Nc1ccc(N2CCC3(CCNC3)CC2)cc1F` [Compound 135, N-(2-fluoro-4-(2,8-diazaspiro[4.5]decan-8-yl)phenyl)-7-methoxy-2-methylimidazo[1,2-a]pyridine-6-carboxamide], less than 50%.

With `CCOc1cc2nc(C)cn2cc1C(=O)Nc1ccc(N2CC(C)NC(CC)C2)nn1` (stereo not shown) [Compound 758, 7-ethoxy-N-(6-(3-ethyl-5-methylpiperazin-1-yl)pyridazin-3-yl)-2-methylimidazo[1,2-a]pyridine-6-carboxamide], the activation at 5 µM is greater than 75%. Same read-out and setting: the result for `CCOc1cc2nc(C)cn2cc1C(=O)Nc1cnc(NC2CNC(C)(C)C2)cn1` (stereo not shown) [Compound 663] reads greater than 75%; that for `CCOc1cc2nn(C)cc2cc1C(=O)Nc1cnc(NC2CNCC23CC3)nc1` (stereo not shown) [Compound 397], less than 50%. With `CCOc1cn2nc(C)cc2cc1C(=O)Nc1cnc(N(C)C2CCNC2)cn1` (stereo not shown) [Compound 551], the activation at 5 µM is greater than 75%. The same measure, in the same setting: the figure for `CCOc1cc2nn(C)cc2cc1C(=O)Nc1cnc(NCC2CCCNC2)nc1` (stereo not shown) [Compound 483] is less than 50%. For `CCOc1cc2nn(C)cc2cc1C(=O)Nc1cnc(NCC2CCCCNC2)nc1` (stereo not shown) [Compound 428], the activation at 5 µM is less than 50%.

For `CCOc1cc2nn(C)cc2cc1C(=O)Nc1cnc(NC[C@H]2C[C@@](F)(CN)C2)nc1` [Compound 391], the activation at 5 µM was less than 50%.

On to `CCOc1cn2nc(C)cc2cc1C(=O)Nc1cnc(N2CC(N3CCNCC3)C2)cn1` [Compound 541], for which the activation at 5 µM was less than 50%.

For `CCOc1cc2nn(C)cc2cc1C(=O)Nc1cnc(N2CCCC(CCN)C2)nc1` (stereo not shown) [Compound 455], the activation at 5 µM was less than 50%. With `CCOc1cc2nn(C)cc2cc1C(=O)Nc1cnc(NCCC2CCCNC2)nc1` (stereo not shown) [Compound 462], the activation at 5 µM is less than 50%. Consider `CCOc1cn2nc(C)cc2cc1C(=O)Nc1cnc(N2C[C@@H]3C[C@H]2CN3)cn1` [Compound 549], for which the activation at 5 µM was greater than 75%. Same read-out and setting: the figure for `COc1cc2nc(C)cn2cc1C(=O)Nc1ccc(N2CCCNC(CO)C2)cc1F` (stereo not shown) [Compound 141, N-(2-fluoro-4-(3-(hydroxymethyl)-1,4-diazepan-1-yl)phenyl)-7-methoxy-2-methylimidazo[1,2-a]pyridine-6-carboxamide] is 50 to 75%; for `CCOc1cc2nn(C)cc2cc1C(=O)Nc1cnc(N2CC(N)C3(CC3)C2)nc1` (stereo not shown) [Compound 444] it is less than 50%; for `CCOc1cn2nc(C)cc2cc1C(=O)Nc1cnc(N2CCC(NCC3CC3)CC2)cn1` [Compound 517] it is greater than 75%. `CCOc1cc2nn(C)cc2cc1C(=O)Nc1cnc(N2CC(N)C(C)(C)C2)cn1` (stereo not shown) [Compound 326]: the activation at 5 µM is greater than 75%. With `CCOc1cc2nn(C)cc2cc1C(=O)Nc1cnc(N2CC(CO)C3(CNC3)C2)cn1` (stereo not shown) [Compound 330], the activation at 5 µM was less than 50%. `CCOc1cc2nn(C)cc2cc1C(=O)Nc1cnc(N2CCC3CCCNC3C2)cn1` (stereo not shown) [Compound 303]: the activation at 5 µM was 50 to 75%. `CCOc1cn2nc(C)cc2cc1C(=O)Nc1cnc(N2CCCC(NC)C2)nc1` (stereo not shown) [Compound 591]: the activation at 5 µM is less than 50%.

Take `CCOc1cc2nn(C)cc2cc1C(=O)Nc1cnc(N2CCC(N)CC2)nc1` [Compound 481]: the activation at 5 µM was less than 50%.

Consider `CCOc1cc2nc(C)cn2cc1C(=O)Nc1cnc(NCc2cccc(CNC)c2)cn1` [Compound 679], for which the activation at 5 µM was less than 50%.

Still in this experiment, the particulars now being: Homo sapiens; mini-gene firefly luciferase reporter in HEK293 cells.
On to `COc1cc2nn(C)cc2cc1C(=O)Nc1ccc(N2CCNCC2)cn1` [Compound 113, 6-methoxy-2-methyl-N-(5-(piperazin-1-yl)pyridin-2-yl)-2H-indazole-5-carboxamide HCl Salt], for which the IC50 is 1000 to 10000 nM. In turn, `CCOc1cc2nc(C)cn2cc1C(=O)Nc1ccc(N2C[C@H]3CNCC[C@H]32)nn1` (racemic) [Compound 239] returned an IC50 of 1000 to 10000 nM. In the case of `CCOc1cc2nc(C)cn2cc1C(=O)Nc1ccc(N2CCN[C@@H](C)C2)cc1F` [Compound 702, 7-ethoxy-N-2-fluoro-4-[(3S)-3-methylpiperazin-1-yl]phenyl-2-methylimidazo[1,2-a]pyridine-6-carboxamide], the IC50 is less than 1000 nM. Turning to `CCOc1cc2nc(C)cn2cc1C(=O)Nc1ccc(N2CCC[C@H]3NCC[C@H]32)nn1` (racemic) [Compound 252], the IC50 was in the range of 1000 to 10000 nM.

Compound `CCOc1cc2nc(C)cn2cc1C(=O)Nc1ccc(N2CCNCC3(CC3)C2)nn1` [Compound 230] yielded an IC50 of 1000 to 10000 nM. `CCOc1cc2nc(C)cn2cc1C(=O)Nc1ccc(N2CCN[C@@H](C)C2)nn1` [Compound 217, (S)-7-ethoxy-2-methyl-N-(6-(3-methylpiperazin-1-yl)pyridazin-3-yl)imidazo[1,2-a]pyridine-6-carboxamide HCl Salt] registered an IC50 of less than 1000 nM. The compound `CCOc1cc2nc(C)cn2cc1C(=O)Nc1ccc(N2CCC(C3CCCN3)C2)nn1` (stereo not shown) [Compound 233] returned an IC50 of 1000 to 10000 nM. Compound `CCc1nc(C(=O)Nc2ccc(N3CCN[C@@H](C)C3)nn2)cn2cc(C)nc12` [Compound 214, 8-ethyl-2-methyl-N-{6-[(3S)-3-methylpiperazin-1-yl]pyridazin-3-yl}imidazo[1,2-a]pyrazine-6-carboxamide] gave an IC50 of less than 1000 nM.

Turning to `CCNC1COC2(C1)CN(c1ccc(NC(=O)c3cn4cc(C)nc4cc3OCC)nn1)C2` (stereo not shown) [Compound 297], the IC50 was 1000 to 10000 nM. Take `CCOc1cc2nc(C)cn2cc1C(=O)Nc1cnc(N2CCN[C@@H](C)C2)cn1` [Compound 700, 7-ethoxy-2-methyl-N-5-[(3S)-3-methylpiperazin-1-yl]pyrazin-2-ylimidazo[1,2-a]pyridine-6-carboxamide]: the IC50 was less than 1000 nM. For `CCOc1cc2nc(C)cn2cc1C(=O)Nc1ccc(N2CC3CCC2C2CNCC32)nn1` (stereo not shown) [Compound 237], the IC50 is 1000 to 10000 nM. Compound `COc1cc2nc(C)cn2cc1C(=O)Nc1ccc(N2C[C@H]3CNCC[C@H]3C2)cc1F` [Compound 630] displayed an IC50 of less than 1000 nM. As for `Cc1cn2cc(C(=O)Nc3ccc(N4CCN[C@@H](C)C4)nn3)c(OC(C)C)cc2n1` [Compound 199, (S)-7-isopropoxy-2-methyl-N-(6-(3-methylpiperazin-1-yl)pyridazin-3-yl)imidazo[1,2-a]pyridine-6-carboxamide], the IC50 is less than 1000 nM.

Compound `Cc1cn2cc(C(=O)Nc3ccc(N4CCN[C@@H](C)C4)cc3F)c(OC3CCC3)cc2n1` [Compound 705, 7-cyclobutoxy-N-2-fluoro-4-[(3S)-3-methylpiperazin-1-yl]phenyl-2-methylimidazo[1,2-a]pyridine-6-carboxamide] returned an IC50 of less than 1000 nM. Regarding `COc1cc2nn(C)cc2cc1C(=O)Nc1ccc(N2CCN[C@@H](C)C2)nn1` [Compound 125, (S)-6-methoxy-2-methyl-N-(6-(3-methylpiperazin-1-yl)pyridazin-3-yl)-2H-indazole-5-carboxamide hydrochloride], the IC50 is less than 1000 nM. Regarding `COc1cc2nc(C)cn2cc1C(=O)Nc1cc(C)c(N2CCN[C@@H](C)C2)nn1` [Compound 302, 7-methoxy-2-methyl-N-{5-methyl-6-[(3S)-3-methylpiperazin-1-yl]pyridazin-3-yl}imidazo[1,2-a]pyridine-6-carboxamide], the IC50 was less than 1000 nM. With `CCOc1cc2nc(C)cn2cc1C(=O)Nc1ccc(N2CCNC3CCCCC32)nn1` (stereo not shown) [Compound 243], the IC50 lay in the range of 1000 to 10000 nM. Still for that read-out and setting: the figure for `CCOc1cc2nc(C)cn2cc1C(=O)Nc1ccc(N2CC3(CCNC3)C2)nn1` [Compound 267] is 1000 to 10000 nM. Consider `CCOc1cc2nc(C)cn2cc1C(=O)Nc1ccc(N2CC(C3CCNC3)C2)nn1` (stereo not shown) [Compound 227], for which the IC50 was 1000 to 10000 nM.

By IC50 is commonly meant the concentration needed to halve the response being measured. Low values mean inhibition by little substance, high ones a need for much substance.
